pIC50, pKi: −log10 of the molar value. Converted amounts (≈) assume the structure as drawn.

Data set [1] addresses T1, Urotensin-2 receptor (Homo sapiens, UniProt Q9UKP6).
T1 sequence (Q9UKP6 whole entry): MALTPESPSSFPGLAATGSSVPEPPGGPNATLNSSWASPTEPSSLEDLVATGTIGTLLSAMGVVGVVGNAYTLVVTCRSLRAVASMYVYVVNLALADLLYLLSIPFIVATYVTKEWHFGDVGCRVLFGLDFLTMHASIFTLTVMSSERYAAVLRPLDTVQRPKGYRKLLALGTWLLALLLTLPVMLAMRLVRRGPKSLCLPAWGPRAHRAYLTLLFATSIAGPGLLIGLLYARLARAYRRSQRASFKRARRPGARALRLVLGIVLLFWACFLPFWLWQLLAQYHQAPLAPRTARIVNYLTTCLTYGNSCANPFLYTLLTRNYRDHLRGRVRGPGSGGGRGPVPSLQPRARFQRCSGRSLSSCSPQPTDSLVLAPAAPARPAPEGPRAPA
Kind of data set: Displacement of [125I]human urotensin 2 from human recombinant urotensin 2 receptor expressed in HEK293 cells. It counts as cell-based.

The target of data set [2] is T1, Urotensin-2 receptor. Kind of data set: Antagonist activity at human urotensin 2 receptor by FLIPR assay. It is filed as functional. The note with it: read-out: pA2 (converted).
The target of a further data set is T2, Urotensin II receptor (Felis catus, UniProt Q533H1).
T2 sequence (Q533H1 whole entry): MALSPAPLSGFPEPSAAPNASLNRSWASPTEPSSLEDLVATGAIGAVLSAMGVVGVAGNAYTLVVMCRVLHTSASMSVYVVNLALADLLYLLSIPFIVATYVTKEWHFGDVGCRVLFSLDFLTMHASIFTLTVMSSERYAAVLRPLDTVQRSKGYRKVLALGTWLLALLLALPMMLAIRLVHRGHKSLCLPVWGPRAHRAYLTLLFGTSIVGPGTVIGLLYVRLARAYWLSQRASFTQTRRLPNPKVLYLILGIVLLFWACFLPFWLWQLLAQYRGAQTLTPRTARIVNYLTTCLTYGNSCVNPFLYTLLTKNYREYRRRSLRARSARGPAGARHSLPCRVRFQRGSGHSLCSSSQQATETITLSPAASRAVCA
Kind of data set: Displacement of [125I]human urotensin 2 from cat urotensin 2 receptor expressed in HEK293 cells. It is filed as cell-based.

Data set [3] concerns the target T1, Urotensin-2 receptor. Briefly: Antagonist activity at human recombinant urotensin 2 receptor expressed in HEK293 cells assessed as inhibition of […] calcium mobilization by FLIPR assay. It is filed as functional, cell-based. On the technique in general: A change in cytosolic calcium serves as a functional read-out for many receptors and channels.
The nature of data set [4]: Aqueous solubility in phosphate buffer by HPLC. It counts as physicochemical.
Data set [5] can be described thus: Permeability across artificial phospholipid membrane by HPLC. It is filed as ADME. As to conditions: not told; read-out: permeability.
A short description of data set [6]: Selectivity for human urotensin 2 receptor over 5HT1A receptor.
Data set [7] in a line: Selectivity for human urotensin 2 receptor over 5HT1B receptor.
A short description of data set [8]: Selectivity for human urotensin 2 receptor over 5HT1D receptor.
Data set [9] in a line: Selectivity for human urotensin 2 receptor over 5HT2A receptor.
The nature of data set [10]: Selectivity for human urotensin 2 receptor over 5HT2C receptor.
Data set [11] is described as follows: Selectivity for human urotensin 2 receptor over 5HT3 receptor.
Data set [12] in a line: Selectivity for human urotensin 2 receptor over 5HT4A receptor.
Data set [13] is described as follows: Selectivity for human urotensin 2 receptor over 5HT6 receptor.
The nature of data set [14]: Selectivity for human urotensin 2 receptor over 5HT7 receptor.
Data set [15] in a line: Selectivity for human urotensin 2 receptor over histamine H1 receptor.
Data set [16] is described as follows: Selectivity for human urotensin 2 receptor over histamine H3 receptor.
The nature of data set [17]: Selectivity for human urotensin 2 receptor over dopamine D2 receptor.
Data set [18] in a line: Selectivity for human urotensin 2 receptor over dopamine D3 receptor.
The nature of data set [19]: Selectivity for human urotensin 2 receptor over adrenergic alpha1A receptor.
Data set [20] is described as follows: Selectivity for human urotensin 2 receptor over adrenergic Alpha-1B receptor.
Data set [21] is described as follows: Selectivity for human urotensin 2 receptor over adrenergic beta2 receptor.
A short description of data set [22]: Selectivity for human urotensin 2 receptor over adenosine A1 receptor.
Data set [23] is described as follows: Selectivity for human urotensin 2 receptor over adenosine A2a receptor.
Data set [24] is described as follows: Selectivity for human urotensin 2 receptor over adenosine A2b receptor.
The nature of data set [25]: Selectivity for human urotensin 2 receptor over muscarinic M1 receptor.
The nature of data set [26]: Selectivity for human urotensin 2 receptor over muscarinic M2 receptor.
A short description of data set [27]: Selectivity for human urotensin 2 receptor over muscarinic M3 receptor.
A short description of data set [28]: Selectivity for human urotensin 2 receptor over muscarinic M4 receptor.
Data set [29] in a line: Selectivity for human urotensin 2 receptor over muscarinic M5 receptor.
A short description of data set [30]: Selectivity for human urotensin 2 receptor over CXCR2.
The species entered for a further data set is Homo sapiens. Briefly: Selectivity for human urotensin 2 receptor over human ERG.
Data set [31] has as its target Voltage-gated inwardly rectifying potassium channel KCNH2 (Homo sapiens, UniProt Q12809). Kind of data set: Inhibition of human ERG.
Another data set addresses Cytochrome P450 2D6 (Homo sapiens, UniProt P10635). Kind of data set: Inhibition of CYP2D6. It counts as ADME.
The target of the next data set is Cytochrome P450 3A4 (Homo sapiens, UniProt P08684). Kind of data set: Inhibition of CYP3A4. It counts as ADME.
Chain of Cytochrome P450 3A4 (P08684 whole entry): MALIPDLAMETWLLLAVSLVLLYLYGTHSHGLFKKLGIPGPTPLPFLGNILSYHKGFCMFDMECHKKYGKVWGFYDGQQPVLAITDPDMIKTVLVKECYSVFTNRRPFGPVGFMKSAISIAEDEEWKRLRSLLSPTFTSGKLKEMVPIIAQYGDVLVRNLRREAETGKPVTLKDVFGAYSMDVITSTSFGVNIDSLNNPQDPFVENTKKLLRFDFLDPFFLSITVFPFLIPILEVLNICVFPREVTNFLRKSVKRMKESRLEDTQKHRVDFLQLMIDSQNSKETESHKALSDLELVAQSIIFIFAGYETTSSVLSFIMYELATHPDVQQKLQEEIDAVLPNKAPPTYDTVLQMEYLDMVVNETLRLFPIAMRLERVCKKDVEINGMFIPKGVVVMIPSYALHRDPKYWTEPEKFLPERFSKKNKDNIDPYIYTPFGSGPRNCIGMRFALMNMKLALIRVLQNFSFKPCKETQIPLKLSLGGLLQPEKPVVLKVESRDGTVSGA
Data set [32] is described as follows: Blood clearance in rat at 0.49 mg/kg, iv or 0.97 mg/kg, po. It counts as ADME, organism-based.
Data set [33] in a line: Half life in rat at 0.49 mg/kg, iv or 0.97 mg/kg, po. It is filed as ADME, organism-based. The note with it: in vivo.
A short description of data set [34]: Oral bioavailability in rat at 0.97 mg/kg. As to conditions: in vivo. It is filed as ADME, organism-based.

Chain of Cytochrome P450 2D6 (P10635 whole entry): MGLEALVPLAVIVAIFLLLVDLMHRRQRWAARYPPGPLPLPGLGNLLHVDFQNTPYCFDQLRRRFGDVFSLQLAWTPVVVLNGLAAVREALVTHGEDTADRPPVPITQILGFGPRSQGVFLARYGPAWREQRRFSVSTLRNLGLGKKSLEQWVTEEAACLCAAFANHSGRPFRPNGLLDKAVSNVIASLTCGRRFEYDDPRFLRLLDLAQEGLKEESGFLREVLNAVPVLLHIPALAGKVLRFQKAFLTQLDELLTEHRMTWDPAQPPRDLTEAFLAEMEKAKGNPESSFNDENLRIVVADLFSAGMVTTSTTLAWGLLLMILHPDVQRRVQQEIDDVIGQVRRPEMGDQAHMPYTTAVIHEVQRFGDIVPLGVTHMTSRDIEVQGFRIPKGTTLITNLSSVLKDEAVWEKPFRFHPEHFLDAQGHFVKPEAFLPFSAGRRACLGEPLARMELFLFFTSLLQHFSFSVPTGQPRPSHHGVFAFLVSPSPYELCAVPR
Chain of Voltage-gated inwardly rectifying potassium channel KCNH2 (Q12809 whole entry): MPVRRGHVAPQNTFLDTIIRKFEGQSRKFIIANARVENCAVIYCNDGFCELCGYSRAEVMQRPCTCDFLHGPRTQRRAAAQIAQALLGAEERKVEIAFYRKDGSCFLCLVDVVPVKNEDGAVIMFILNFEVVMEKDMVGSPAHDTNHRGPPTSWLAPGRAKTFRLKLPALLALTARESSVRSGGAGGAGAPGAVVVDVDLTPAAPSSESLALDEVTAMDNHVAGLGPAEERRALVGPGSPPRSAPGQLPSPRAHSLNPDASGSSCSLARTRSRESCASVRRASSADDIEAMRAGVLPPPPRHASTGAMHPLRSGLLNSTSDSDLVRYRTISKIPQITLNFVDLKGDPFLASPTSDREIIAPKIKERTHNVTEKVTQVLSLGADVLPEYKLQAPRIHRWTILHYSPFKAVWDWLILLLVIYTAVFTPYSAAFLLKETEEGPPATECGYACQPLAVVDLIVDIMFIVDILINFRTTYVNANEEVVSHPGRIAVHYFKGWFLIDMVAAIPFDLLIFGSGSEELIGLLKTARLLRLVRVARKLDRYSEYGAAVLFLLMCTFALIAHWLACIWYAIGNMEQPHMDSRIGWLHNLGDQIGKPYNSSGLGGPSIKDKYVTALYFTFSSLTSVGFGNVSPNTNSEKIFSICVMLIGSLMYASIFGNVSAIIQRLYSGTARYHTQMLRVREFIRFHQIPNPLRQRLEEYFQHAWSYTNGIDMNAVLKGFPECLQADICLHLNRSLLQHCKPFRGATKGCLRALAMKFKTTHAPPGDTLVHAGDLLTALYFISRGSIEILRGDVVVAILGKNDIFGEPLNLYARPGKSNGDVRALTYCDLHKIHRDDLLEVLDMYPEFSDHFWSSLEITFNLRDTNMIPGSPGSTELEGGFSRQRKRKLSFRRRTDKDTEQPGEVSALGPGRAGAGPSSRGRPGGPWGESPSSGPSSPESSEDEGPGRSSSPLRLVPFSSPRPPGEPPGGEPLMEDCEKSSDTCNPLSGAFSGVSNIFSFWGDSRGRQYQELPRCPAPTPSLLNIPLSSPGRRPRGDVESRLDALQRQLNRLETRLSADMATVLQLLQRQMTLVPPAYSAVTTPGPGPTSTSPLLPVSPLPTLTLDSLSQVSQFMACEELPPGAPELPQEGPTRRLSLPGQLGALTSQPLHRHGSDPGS

What is called pKi is −log10 of the Ki, conventionally taken in molar units. In the case of `c1ccc2c(c1)[nH]c1ccnc(NCC3CC3)c12`, the pKi on Urotensin-2 receptor [1] is 8.20; at Urotensin II receptor, 5.60. For the same compound, the Kb at Urotensin-2 receptor [2] is 126 nM.
Regarding `CCCCNc1nccc2c1c1ccccc1n2C`, the pKi at Urotensin-2 receptor [1] is 7.30; on Urotensin II receptor, 6.00.
As for `c1ccc(Nc2nccc3[nH]c4ccccc4c23)cc1`, the pKi at Urotensin-2 receptor [1] was less than 5.10.
In the case of `CCCCN(CCCC)c1nccc2[nH]c3ccccc3c12`, the pKi on Urotensin-2 receptor [1] was 6.10.
Consider `CCCCCNc1nccc2[nH]c3ccccc3c12`, for which the values for the negative-log Ki (pKi) on Urotensin-2 receptor [1] and on Urotensin II receptor were 8.40 and 6.40, respectively.
On to `CN(C)CCNc1nccc2[nH]c3ccccc3c12`, for which, on Urotensin-2 receptor [1], the negative-log Ki (pKi) was less than 5.10.
With `c1ccc2c(c1)[nH]c1ccnc(NCC3CCCCC3)c12`, the pKi on Urotensin-2 receptor [1] was 8.00.
As to `COCCN(C)c1nccc2[nH]c3ccccc3c12`, the pKi at Urotensin-2 receptor [1] is less than 5.10.
Consider `CCNc1nccc2[nH]c3ccccc3c12`, for which, at Urotensin-2 receptor [1], the pKi was 5.80.
Regarding `CC(=O)NCCNc1nccc2[nH]c3ccccc3c12`, the pKi at Urotensin-2 receptor [1] is less than 5.10.
Still for that read-out and setting: with `CCCCNc1nccc2c1c1ccccc1n2Cc1ccccc1` the figure was 5.40.
Same read-out and setting: with `c1ccc2c(c1)[nH]c1nccc(NCC3CC3)c12` the figure was 7.00; with `c1ccc(CCNc2nccc3[nH]c4ccccc4c23)cc1`, 7.00.
Still for that read-out and setting: the value for `CCCCNc1nccc2c1c1ccccc1n2C(C)C` was 7.20; that for `c1ccc2c(c1)[nH]c1ccnc(NC3CCCCC3)c12` was less than 5.10.
Turning to `CCC(C)CNc1nccc2[nH]c3ccccc3c12` (centres undefined), the pKi is 8.00 on Urotensin-2 receptor [1] and 5.90 on Urotensin II receptor. Besides, the Kb at Urotensin-2 receptor [2] is 100 nM.
On to `CC(C)CCNc1nccc2[nH]c3ccccc3c12`, for which the values for the pKi on Urotensin-2 receptor [1] and at Urotensin II receptor were 7.90 and 5.80, respectively.
With `COCCNc1nccc2[nH]c3ccccc3c12`, the pKi at Urotensin-2 receptor [1] was 7.70.
Consider `c1csc(CNc2nccc3[nH]c4ccccc4c23)c1`, for which the pKi at Urotensin-2 receptor [1] is 7.60; at Urotensin II receptor, 5.50. In addition, at Urotensin-2 receptor [2], the Kb is 158 nM.
By pIC50 is commonly meant the IC50 on a negative log10 scale, so that one unit is a factor of ten. What is called solubility is the concentration that dissolves in the medium under given conditions. A low value points to little dissolved substance. A word on the half-life: it is how long it takes for the measured level to halve. The bioavailability is the share of a dose that reaches the circulation, judged against a reference dose that is usually intravenous. A low value points to little systemic uptake. Consider `CCCCNc1nccc2[nH]c3ccccc3c12`, for which the negative logarithm of the IC50 (pIC50) was 6.30 at Urotensin-2 receptor [3], 5.80 in [31], 8.10 on Cytochrome P450 2D6 and 7.00 at Cytochrome P450 3A4. Also, the pKi at Urotensin-2 receptor [1] was 8.40; on Urotensin II receptor it was 6.20. Also, the Kb on Urotensin-2 receptor [2] is 100 nM. The compound also showed a solubility in [4] of 195 µM (≈ 46.7 µg/mL). Besides, in data set [5], the Papp was found to be 47 ×10⁻⁶ cm/s. Moreover, the Selectivity ratio in data set [6], in data set [7], in data set [8], in data set [9], in data set [10] and in data set [11] was 100 each time. Besides, the Selectivity ratio in data set [12], in [13], in data set [14], in [15], in data set [16] and in data set [17] was 100 in each case. In addition, the Selectivity ratio in data set [18], in [19], in [20], in data set [21], in [22] and in data set [23] was 100 each time. The Selectivity ratio in data set [24], in data set [25], in data set [26], in [27], in data set [28] and in [29] was 100 each time. For the same compound, the Selectivity ratio in data set [30] stood at 100; in the data set listed under Homo sapiens it was 400. The clearance in [32] was determined as 110 mL/min/kg. Further, the half-life in [33] was 1.3 h. In data set [34], this compound gave a bioavailability of 11%.
For `CCCCNc1ccnc2[nH]c3ccc(Cl)cc3c12`, the negative-log Ki (pKi) on Urotensin-2 receptor [1] was 7.30.
As to `CCOCCNc1nccc2[nH]c3ccccc3c12`, the pKi at Urotensin-2 receptor [1] is 7.90.
Same read-out and setting: with `CCCNc1nccc2[nH]c3ccccc3c12` the figure was 7.60.
The same measure, in the same setting: the value for `c1ccc2c(c1)[nH]c1ccnc(NCCN3CCOCC3)c12` was less than 5.10; that for `CCCCNc1ccnc2[nH]c3ccccc3c12` was 7.10.
Regarding `CCCCNc1ccnc2[nH]c3ccc(C)cc3c12`, the pKi at Urotensin-2 receptor [1] is 7.20.
Still for that read-out and setting: the value for `NC(=O)CCNc1nccc2[nH]c3ccccc3c12` was less than 5.10; that for `c1ccc2c(c1)[nH]c1ccnc(NC3CC3)c12` was 5.60; that for `c1ccc2c(c1)[nH]c1ccnc(NCC3CCCO3)c12` (centres undefined) was 7.10.
As for `c1ccc2c(c1)[nH]c1nccc(NCC3CCCCC3)c12`, the pKi at Urotensin-2 receptor [1] was 6.10.
In the case of `c1ccc(CNc2nccc3[nH]c4ccccc4c23)cc1`, the pKi on Urotensin-2 receptor [1] is 7.90; on Urotensin II receptor it was 6.00. In addition, the Kb at Urotensin-2 receptor [2] is 20 nM.
In the case of `CCCCNc1ccnc2[nH]c3c(OC)cccc3c12`, the negative-log Ki (pKi) on Urotensin-2 receptor [1] is 7.50.
Consider `COCCNc1ccnc2[nH]c3ccccc3c12`, for which the negative logarithm of the Ki (pKi) at Urotensin-2 receptor [1] was 6.50.
The same measure, in the same setting: the value for `CCCC(C)Nc1nccc2[nH]c3ccccc3c12` (centres undefined) was 6.10.
Consider `CCCCCCNc1nccc2[nH]c3ccccc3c12`, for which the results for the pKi on Urotensin-2 receptor [1] and at Urotensin II receptor were 8.20 and 6.70, respectively.

These data come from ChEMBL document CHEMBL1141701, “N-alkyl-5H-pyrido[4,3-b]indol-1-amines and derivatives as novel urotensin-II receptor antagonists” (Bioorg Med Chem Lett, 2008).
